Data reported in PMC8706879 (Pharmaceuticals, 2021).
Read-outs that look alike come from different tables or passages of the source. Where a SMILES comes first, the peptide text is derived from it. Bridges are numbered along the chain shown (N, C = ends). [ ]: non-standard residue; d: D form. The star is where a group is joined. DOTA = O=C(O)CN1CCN(CC(=O)O)CCN(CC(=O)*)CCN(CC(=O)O)CC1; dPhe(4-NHCONH2) = NC(=O)Nc1ccc(C[C@@H](N)C(=O)O)cc1; Dihydroorotyl(S) = O=C1C[C@@H](C(=O)*)NC(=O)N1; Phe(4-Cl) = N[C@@H](Cc1ccc(Cl)cc1)C(=O)O; Phe(4-NH2) = Nc1ccc(C[C@H](N)C(=O)O)cc1

Tests used:
HEK-SST2 cells [1] = assay: Sub-cellular redistribution of cell surface-bound radioligand at 37 °C; type: cell-based, human; design: reduction of initial surface-bound fraction: concentration or dose not given beside the values
Procedure: (§1) In vitro assays on intact cells were performed with HEK-SST2 cells seeded in 6-well plates. The plates were pre-treated with a solution of 10% poly-lysine to promote cell attachment. HEK-SST2 cells (about 1 × 10^6 cells) were incubated in 1% (v/v) FBS containing medium at 37 °C/5% CO2 overnight. The day after, the cells were washed with medium, followed by incubation with the adjusted medium volume for 1 h prior starting the experiment.
(§2) In all assays, non-specific binding of [^177Lu]Lu-OPS201 was determined using 1000-fold excess of the unlabelled SST2 antagonist OPS202, also known as NODAGA-JR11, (where NODAGA is 1,4,7-triazacyclononane,1-glutaric acid-4,7-acetic acid). […] All reported values refer to specific binding (total minus non-specific binding). The radioactivity of all samples was measured in a gamma-counter (COBRA 5003, Packard Instruments). For all binding experiments with membranes, bound radioligand was separated from the one remaining in solution by rapid vacuum filtration, using an M-48 Brandel Cell Harvester (Alpha Biotech Ltd., Glasgow, UK). The filters were dried before being measured in the gamma-counter.
The cell surface-bound internalisation and dissociation rates of [^177Lu]Lu-OPS201 were studied in HEK-SST2 cells seeded in 6-well plates (10^6 cells/well), which were first placed on ice for 30 min. The experiment was started by adding 2.5 nM [^177Lu]Lu-OPS201 to the medium, and the incubation was carried out at 4 °C for 2 h to prevent internalisation of the radioligand. Afterwards, the cells were washed with ice-cold PBS, and 1 mL/well of fresh pre-warmed (37 °C) medium was added. One plate was immediately treated with ice-cold glycine solution, and then the cells were detached with NaOH to determine the initial surface-bound and internalised fraction. The other plates were incubated at 37 °C for 10, 20, 30, 60, 120 or 240 min (one plate per time point) before the same treatment. At the specified time points, the amount of radioactivity, presented as cell surface-bound, internalised and in medium redistributed radioligand, was expressed in percentage of the cell-associated fraction (surface bound and internalised uptake) at the onset of the redistribution step as control. All reported values have been corrected for non-specific uptake.

HEK-SST2 cells [2] = assay: Externalisation of [^177Lu]Lu-DOTA-TATE by intact cells; type: cell-based, human
Procedure: (§3) In vitro assays on intact cells were performed with HEK-SST2 cells seeded in 6-well plates. The plates were pre-treated with a solution of 10% poly-lysine to promote cell attachment. HEK-SST2 cells (about 1 × 10^6 cells) were incubated in 1% (v/v) FBS containing medium at 37 °C/5% CO2 overnight. The day after, the cells were washed with medium, followed by incubation with the adjusted medium volume for 1 h prior starting the experiment. […] The cells were afterwards incubated at 37 °C under the same three different conditions as above. […] At the end, the cells were treated with NaOH and collected for measurement. All reported values were also normalised as described above. In both aforementioned experiments, the 37 °C washout medium was repeatedly refreshed in an attempt to limit any re-equilibration between free and cell-associated radioligand and to reduce the accumulation (and thus the rebinding) of radioligand molecules when they were already dispersed in the bulk of the naïve medium. All data were fitted according to the one-phase exponential decay equation (GraphPad Software Inc., Prism 7).

HEK-SST2 cells [3] = assay: Radioligand binding to and internalisation by intact HEK-SST2 cells; type: cell-based, human; conditions: for cell surface bound fraction of total added radioligand / internalised fraction of total added radioligand: 4 h incubation at 37 °C, 2.5 nM
Procedure: The HEK-293 cell line expressing the T7-epitope tagged human SST2 (HEK-SST2) was provided by Prof. Stefan Schulz (Institute of Pharmacology and Toxicology, Jena University Hospital, Jena, Germany). HEK-SST2 cells were cultured at 37 °C and 5% CO2 in DMEM containing 10% FBS, 100 U/mL penicillin, 100 µg/mL streptomycin, […] L-glutamine, and 500 µg/mL geneticin (G-418).
as §1, §2
After 0.5, 1, 2 and 4 h (one plate per time point), the medium was removed, and the plated cells were quickly washed twice with ice-cold PBS. The cells were then treated twice for 5 min with ice-cold glycine solution (0.05 M, pH 2.8) to detach the cell surface-bound radioligand (acid releasable). Afterwards, the cells containing the internalised radioligand were detached with 1 M NaOH at 37 °C and collected for measurement. The amount of specific cell surface-bound and internalised radioligand is expressed as a percentage of the total applied activity after subtracting the non-specific values.

HEK-SST2 cells [4] = assay: Dissociation/release of cell-associated [^177Lu]Lu-OPS201 by intact cells; type: cell-based, human; conditions: after 4 h at 37 °C
Procedure: as §3, with “then” for “afterwards”, “under three different conditions: […] At preselected time points, the medium was removed for quantification and replaced by fresh pre-warmed (37 °C) medium (either alone or with” for “under”, “unlabelled competitor).” for “three different conditions as above.”, “All” for “All reported”

human SST2 [5] = biological target: T1, human SST2 (Homo sapiens, UniProt P30874); assay: biochemical
Procedure: (§4) To prepare cell membranes, HEK-SST2 cells were grown to confluence, mechanically disaggregated, washed with PBS (pH 7.4) and re-suspended in 20 mM of homogenisation Tris buffer (pH 7.5) containing 1.3 mM EDTA, 0.25 M sucrose, 0.7 mM bacitracin, 5 µM soybean trypsin inhibitor and 0.7 mM PMSF. The cells were homogenised using Ultra-Turrax, and the homogenised suspension was centrifuged at 500× g for 10 min at 4 °C. The supernatant was collected in centrifuge tubes (Beckman Coulter Inc., Brea, CA, USA). This procedure was then repeated 5 times. The collected supernatant was centrifuged in an ultra-centrifuge (Beckman) at 4 °C for 55 min at 20,000 rpm (approximately 49,000× g). Then, the pellet was re-suspended in 10 mM ice-cold HEPES buffer (pH 7.5), aliquoted, and stored at −80 °C. The protein concentration of those membrane suspensions was determined by the Bradford method, BSA as the standard.
as §2
The dissociation of those radioligands was initiated by adding a 1000-fold excess of either unlabelled Lu-OPS201, Lu-DOTA-TATE, DOTA-BASS or lanreotide and monitored for up to 3 h. To monitor the stability of the radioligand–receptor complex during this extended time period, the membranes were incubated with radioligand for up to 4 h.

human SST2 [6] = biological target: T1, human SST2; assay: Saturation binding on HEK-SST2 cell membranes
Procedure: as §4, §2
The incubation was initiated by adding 30 μL of radioligand solution at 10 times the final concentration and 100 μL of cell membrane suspension to yield 10 μg of protein per well.

[7] = after 2 h pre-incubation at 4 °C
[8] = after 4 h of incubation at 37 °C

T1 sequence (P30874 whole entry): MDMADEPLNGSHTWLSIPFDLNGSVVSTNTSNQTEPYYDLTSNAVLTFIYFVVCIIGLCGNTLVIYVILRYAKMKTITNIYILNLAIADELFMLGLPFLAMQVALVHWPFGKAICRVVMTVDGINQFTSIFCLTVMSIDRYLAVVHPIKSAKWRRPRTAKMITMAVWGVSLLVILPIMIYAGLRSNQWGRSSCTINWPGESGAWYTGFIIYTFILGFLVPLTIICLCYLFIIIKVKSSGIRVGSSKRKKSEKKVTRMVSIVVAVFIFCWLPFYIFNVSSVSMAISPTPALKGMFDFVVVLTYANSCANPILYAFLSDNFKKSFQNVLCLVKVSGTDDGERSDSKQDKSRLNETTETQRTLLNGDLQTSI

C[C@@H](O)[C@H](NC(=O)[C@@H]1CSSC[C@H](NC(=O)[C@@H](Cc2ccccc2)NC(=O)CN2CCN(CC(=O)O)CCN(CC(=O)O)CCN(CC(=O)O)CC2)C(=O)N[C@@H](Cc2ccc(O)cc2)C(=O)N[C@H](Cc2c[nH]c3ccccc23)C(=O)N[C@@H](CCCCN)C(=O)N[C@@H]([C@@H](C)O)C(=O)N1)C(=O)O [[^177Lu]Lu-DOTA-TATE, ^177Lu-oxodotreotide, metal not drawn]
cell surface binding at 4 °C (HEK-SST2 cells [1]; 4 °C): very low cell surface binding | decrease of internalised radioligand during washout (HEK-SST2 cells [2]; after 4 h in naïve medium, 37 °C): only partial | decrease of internalised radioligand during washout (HEK-SST2 cells [2]; after 4 h in the presence of an excess of Lu-DOTA-TATE and Lu-OPS201, 37 °C): nearly complete | internalised fraction (HEK-SST2 cells [3]; 30 min of incubation at 37 °C): more than 50% | cell surface bound fraction of total added radioligand (HEK-SST2 cells [3]): 2 ± 1% | internalised fraction of total added radioligand (HEK-SST2 cells [3]): 77 ± 3%

C[C@@H](O)[C@@H]1NC(=O)[C@H](CCCCN)NC(=O)[C@@H](Cc2ccc(NC(N)=O)cc2)NC(=O)[C@H](Cc2ccc(NC(=O)[C@@H]3CC(=O)NC(=O)N3)cc2)NC(=O)[C@H](NC(=O)[C@H](Cc2ccc(Cl)cc2)NC(=O)CN2CCN(CC(=O)O)CCN(CC(=O)O)CCN(CC(=O)O)CC2)CSSC[C@@H](C(=O)N[C@H](Cc2ccc(O)cc2)C(N)=O)NC1=O [[^177Lu]Lu-OPS201, ^177Lu-satoreotide tetraxetan, metal not drawn] ({DOTA}-[Phe(4-Cl)][dC][Phe(4-NH2)](Dihydroorotyl(S))[dPhe(4-NHCONH2)]KTC[dY]-NH2; disulfide 2-7)
radioligand released (HEK-SST2 cells [4]; repeatedly refreshed naïve medium): 40% | radioligand released (HEK-SST2 cells [4]; washout medium with excess of unlabelled Lu-OPS201 or Lu-DOTA-TATE): 70% | internalised fraction of added radioligand (HEK-SST2 cells [1]; [7]): 7% | surface-bound fraction of added radioligand (HEK-SST2 cells [1]; [7]): 54% | fraction released in the medium (HEK-SST2 cells [1]; after 4 h at 37 °C, undisturbed medium): < 5% | internalised fraction (of cell-associated activity) (HEK-SST2 cells [1]; [8]): 24% | reduction of initial surface-bound fraction (HEK-SST2 cells [1]; [8]): 17% | surface-bound fraction (of cell-associated activity) (HEK-SST2 cells [1]; [8]): 71% | internalised fraction (of cell-associated activity) (HEK-SST2 cells [1]; t = 0 of 37 °C incubation): 12% | surface-bound fraction (of cell-associated activity) (HEK-SST2 cells [1]; t = 0 of 37 °C incubation): 88% | cell surface bound fraction of total added radioligand (HEK-SST2 cells [3]): 46 ± 2% | internalised fraction of total added radioligand (HEK-SST2 cells [3]): 31 ± 1% | dissociation t1/2 (human SST2 [5]): 41 min | koff (human SST2 [5]; HEK-SST2 membranes, competitor DOTA-BASS): 0.0003 s⁻¹ | koff (human SST2 [5]; HEK-SST2 membranes, competitor Lu-OPS201): 0.000283 s⁻¹ | dissociation t1/2 (human SST2 [5]; competitor: excess DOTA-BASS): 38 min | Bmax (human SST2 [6]; HEK-SST2 cell membranes 10 µg/well, 37 °C, single-site model): 0.37 ± 0.02 nM | Kd (human SST2 [6]; HEK-SST2 cell membranes, 37 °C, single-site model): 0.15 ± 0.003 nM | number of binding sites recognised relative to [^177Lu]Lu-DOTA-TATE (human SST2 [6]; saturation binding, HEK-SST2 cell membranes): about four times more sites

H-D2Nal-c(Cys-Tyr-DTrp-Lys-Val-Cys)-Thr-NH2 [lanreotide, reference compound]
displacement of specifically bound [^177Lu]Lu-OPS201 by the unlabelled agonist (human SST2 [5]; high concentration (1000-fold excess) of competitor, HEK-SST2 membranes): no more than 30%
